“Also recorded” adds a separate entry of the source.
target: α-synuclein (Homo sapiens, UniProt P37840); assay: Kinetic thioflavin T aggregation assay of ASYN in TBS; assay type: biochemical; settings: Table 4 interactomer peptides, 50 μM ASYN, 100 μM inhibitor, 37 C, 48 hours, sigmoidal fit
Protocol: (§1) Kinetic ThT assays were performed by adding ThT directly to the sample at time=0. A 2.5 mM ThT stock solution was made up in the buffer that was used in the aggregation experiment, filtered through a […] Millex GV filter and diluted to 62.5 μM by adding 5 μl to final sample volume of 200 μl in a 96-well polypropylene plate. The increase in fluorescence over time as a result of amyloid formation was measured in a Biotek Synergy HT plate reader at 37° C. with shaking. Cut off filters were used for exitation at 440/30 nm and emission at 485/20 nm. Readings were every 10 minutes with shaking for 500 seconds before each reading.
Aggregation assays were carried out with 50 μM ASYN and 100 μM inhibitor with 50 mM tris and 150 mM NaCl and 20 μM Thioflavin T. The reaction volume was 200 μL. Each reaction was set up in a 96 well polypropylene plate with ASYN only and buffer only controls. The reactions were incubated at 37 C with shaking for 48 hours and aggregation was monitored by reading thioflavin T fluorescence as described above.
The aggregation inhibition properties of ZP-0154 and ZP-0155 were tested in kinetic ThT assays in TBS as described above.
All peptides were tested for inhibition of ASYN aggregation in TBS as described above and the kinetic traces were fit using Zyentiafit software which fits the data to a Sigmoidal function f(x)=k+A/(1+exp(−b(t−t0))) from which the lag time, rate of aggregation and total change in ThT fluorescence may be calculated.
A kinetic thioflavin T assay to measure aggregation was set up with 50 uM α-synuclein in TBS and a molar ratio of 1:2 of α-synuclein:inhibitor). Reactions were incubated for 48 hours at 37° C. with shaking and thioflavin T fluorescence was measured every 10 minutes. The kinetic traces were fit using Zyentiafit software which fits the data to a Sigmoidal function f(x)=k+A/(1+exp(−b(t−t0))) from which the lag time, rate of aggregation and total change in ThT fluorescence may be calculated.

Row | Substance | % decrease in ThT fluorescence | % decrease in rate of aggregation | % increase in Lag phase
1 | Ac-hhtlvv-NH2 [ZP-0186] | 30.7% | 29.7% | 16.1%
2 | Ac-hhtivk-NH2 [ZP-0179] | 0.6% | −0.6% | 30.4%
3 | Ac-hhvlva-NH2 [ZP-0160] | 8.8% | 10.5% | 36.5%
4 | Ac-hhvivw-NH2 [ZP-0172] | −1.7% | 6.9% | 28.1%
5 | Ac-hpviva-NH2 [ZP-0164] | 3.7% | −2.3% | 43.0%
6 | Ac-hhtvva-NH2 [ZP-0180] | 19.8% | 18.4% | 30.3%
7 | Ac-hhtlva-NH2 [ZP-0181] | 22.8% | −1.2% | 29.4%
8 | Ac-hhvvva-NH2 [ZP-0159] | 19.8% | 18.6% | 36.6%
9 | Ac-hhviva-NH2 [ZP-0158] | 15.1% | 18.4% | 32.5%
10 | Ac-hhtevy-NH2 [ZP-0193] | 8.7% | −15.8% | 31.4%
11 | Ac-hhveva-NH2 [ZP-0162] | 6.3% | 6.6% | 33.4%
12 | Ac-hhtivv-NH2 [ZP-0175] | 21.9% | 16.8% | 89.7%
13 | Ac-hhvivt-NH2 [ZP-0170] | 24.5% | 29.3% | 29.4%
14 | Ac-hhvivv-NH2 [ZP-0169] | −0.5% | −13.3% | 26.1%
15 | Ac-hhvkva-NH2 [ZP-0161] | −5.9% | 2.3% | 19.7%
16 | Ac-hhvivp-NH2 [ZP-0168] | −8.6% | −5.4% | 29.8%
17 | Ac-hhvivy-NH2 [ZP-0171] | 13.9% | 13.2% | 43.6%

Other lines, results leading:

Row | % decrease in ThT fluorescence | % decrease in rate of aggregation | % increase in Lag phase | Substance
18 | 3.3% | 8.4% | 25.9% | Ac-qypvli-NH2 [ZP-0206]
19 | 20.4% | 4.8% | −12.6% | Ac-drysvli-NH2 [ZP-0214]
20 | 27.6% | 17.5% | 3.1% | NH3-qysvli-NH2 [ZP-0215]
21 | 24.7% | 22.8% | −22.4% | NH3-qytvli-NH2 [ZP-0221]
22 | 40.8% | 46.2% | 38.2% | NH3-pysvli-NH2 [ZP-0228]
23 | 25.6% | 12.9% | 29.4% | Ac-ekysvli-NH2 [ZP-0213]
24 | 51.1% | 44.9% | −14.4% | Ac-rysvli-NH2 [ZP-0212]
25 | 5.5% | 3.6% | 29.7% | Ac-qpsvli-NH2 [ZP-0207]
26 | 10.9% | 15.9% | 32.4% | NH3-qysvlt-NH2 [ZP-0230]
27 | 1.4% | −5.6% | 23.6% | Ac-qysvpi-NH2 [ZP-0204]
28 | 42.3% | 34.3% | 7.7% | NH3-qykvli-NH2 [ZP-0222]
29 | 53.5% | 54.5% | −28.8% | Ac-qykvli-NH2 [ZP-0202]
30 | 17.8% | 24.3% | 33.5% | NH3-qysvlv-NH2 [ZP-0229]
31 | 16.6% | −11.9% | 30.6% | Ac-qyspli-NH2 [ZP-0205]
32 | 11.6% | 7.7% | 38.8% | Ac-hhttvy-NH2 [ZP-0194]

same assay, conditions: Table 5 structure stabilising peptides, 50 uM α-synuclein, 1:2 α-synuclein:inhibitor, 48 hours, 37° C., relative to α-synuclein only

Row | % decrease in ThT fluorescence | % decrease in rate of aggregation | % increase in Lag phase | Substance
33 | 12.2% | 6.7% | 10.7% | Ac-rgdgd-NH2 [ZP-0247]
34 | 18.5% | −0.6% | 23.4% | Ac-rdr-NH2 [ZP-0240]
35 | 4.3% | 2.7% | 11.2% | Ac-kgegk-NH2 [ZP-0231]
36 | 6.1% | 10.9% | 16.6% | Ac-egkgegk-NH2 [ZP-0241]

same assay, conditions: structure stabilising peptides, 48 hours

Row | endpoint thioflavin T fluorescence (in words) | Substance
37 | significant decrease | Ac-rdr-NH2 [ZP-0240]

same assay, conditions: timeframe of the assay 48 h, 50 μM ASYN, 100 μM inhibitor

Row | increase in ThT signal compared to ASYN only | Substance
38 | No significant increase | NMP-NMP-NMP-NMP-kvfgtaa-NH2 [ZP-0154]
39 | No significant increase | NMP-NMP-NMP-kvfgtaa-NH2 [ZP-0155]

target: T1, ASYN (Homo sapiens, UniProt P37840); assay: Kinetic ThT aggregation assay in 25 mM Tris-Cl pH 7.4 with 100 mg/ml PEG 3350; assay type: biochemical; settings: Tris-Cl pH 7.4; 48 hours; average over the named inhibitors
Protocol: as §1
For compounds ZP-0089 to ZP-0094, a kinetic ThT experiment was performed in 25 mM Tris-Cl at 37° C. to test the inhibition properties of ZP-0089 to ZP-0094 in Tris-Cl pH 7.4. Each 200 μl sample on the 96 well-plate contained 50 μM ASYN, 100 μM inhibitor and 100 mg/ml PEG along with buffer only and ASYN only controls. Samples were measured in triplicate. ThT fluorescence over time was monitored for 48 hours.

Row | decrease in the endpoint ThT reading | Substance
40 | 18±2% | NH2-sgvylvg-NH2 [ZP-0094]
41 | 18±2% | Ac-sgvylvg-COOH [ZP-0091]
42 | 18±2% | NH2-sgvylvg-COOH [ZP-0092]

same assay, conditions: both buffer conditions (Tris-Cl pH 7.4 and PBS); 50 μM ASYN, 100 μM inhibitor

Row | inhibition compared to ASYN alone | Substance
43 | > 30% | L-DOPA-gpvntvq-NH2 [ZP-0090]
44 | > 60% | L-DOPA-sgvylvg-NH2 [ZP-0089]

same assay, conditions: endpoint; Tris-Cl pH 7.4 at 37° C. with 100 mg/ml PEG 3350; 50 μM ASYN, 100 μM inhibitor

Row | ThT signal compared to ASYN (FIG. 11) | Substance
45 | significantly decreased | L-DOPA-gpvntvq-NH2 [ZP-0090]
46 | significantly decreased | L-DOPA-sgvylvg-NH2 [ZP-0089]

target: T1, ASYN; assay: Kinetic ThT aggregation assay in PBS pH 7.4; assay type: biochemical; settings: FIG. 13; PBS; asyn:inhibitor 1:2
Protocol: The molar ratio of asyn:inhibitor is 1:2. For both, ASYN aggregation inhibition is observed as an increased lag time along with decreased endpoint ThT fluorescence.
as §1
For compounds ZP-0089 to ZP-0094, a kinetic experiment was performed to test the inhibition properties in PBS pH 7.4 as described above. Samples were assayed in triplicate and each sample contained 50 μl of 200 μM ASYN and 50 μl of 400 μM inhibitor was added to 100 μl PBS in a well and mixed to yield a 200 μl sample volume containing 50 μM ASYN and 100 μM inhibitor. Control wells contained either buffer only or ASYN only.

Row | endpoint ThT fluorescence | lag phase / lag time | rate of amyloid formation | Substance
47 | decreased | increased | decreased | L-DOPA-gpvntvq-NH2 [ZP-0090]
48 | decreased | large increase; also recorded: increased | decreased | L-DOPA-sgvylvg-NH2 [ZP-0089]

same assay, conditions: endpoint; legend prints Tris-Cl pH 7.4 at 37° C. with 100 mg/ml PEG 3350

Row | ThT signal compared to ASYN (FIG. 12) | Substance
49 | significantly decreased | L-DOPA-gpvntvq-NH2 [ZP-0090]
50 | significantly decreased | L-DOPA-sgvylvg-NH2 [ZP-0089]
